Some results are limits rather than exact numbers.

With `CCOc1ccccc1Nc1nc(Nc2cc3c(cc2OC)CCN(CC(=O)N(C)C)CC3)ncc1Cl`, the melting point lay within 60 to 79 °C.

Consider `O=C1N[C@H](Cc2cccc(C(F)(F)F)c2)[C@H](c2ccc(F)cc2)O1` (racemic), for which the melting point was in the range of 177 to 178 °C.

Compound `S=C(Nc1ccccc1Cl)N1CCN(c2cnccn2)CC1` yielded a melting point of 167 to 169 °C.

For `CC1CN(S(C)(=O)=O)Cc2nc3c(N)nc4ccccc4c3n21` (stereo unspecified), the melting point was 258 to 261 °C.

`COC1=C(OC)C(=O)C(CCCCCCCCCCCCO)=C(C)C1=O` showed a melting point of 63 °C.

`Nc1cccnc1C1CCN(c2cc3c(cc2F)c(=O)c(C(=O)O)cn3C2CC2)C1` (stereo unspecified) registered a melting point above 270 °C.

The compound `COc1cccc(NC(=O)C2=C(O)c3ccc4ccccc4c3S(=O)(=O)N2C)c1` had a melting point of 242 to 244 °C.

Regarding `CC#CCOc1ccc(S(=O)[C@@H](C(=O)NO)c2ccc(-c3cccs3)cc2)cc1` (stereo partly specified), the melting point worked out at 158 °C.

`Cn1c(CNCC(C)(C)C)cc2cc(NC(=O)c3ccc(C#CC4(O)CCC4)cc3)ccc21` displayed a melting point of 160 to 161 °C.

`CC(=O)Nc1c(C(=O)c2ccc(C)cc2)[nH]c2cc(Cl)ccc12` came in with a melting point of 140 to 143 °C.

For `COc1ccc2c(c1OC)CCC=C2C#N`, the melting point lay within 139 to 140 °C.

In turn, `O=C(c1cc(-c2ccc(F)cc2)c(-c2ccc(F)cc2)s1)C(F)(F)F` showed a melting point of 120 to 122 °C.

With `OC(c1ccccc1)c1ccc(Nc2nccc(-c3cnc4ccccn34)n2)cc1` (stereo unspecified), the melting point lay in the range of 213 to 216 °C.

In turn, `Cc1c(-c2ccccc2)oc2c(C(=O)NCCCl)cccc2c1=O` showed a melting point of 181 to 182 °C.

`CC(C)(CO)CNc1nccc(-c2c(-c3ccc(F)cc3)nc3occn23)n1` displayed a melting point of 149 °C.

With `OCc1c(C(F)(F)F)n(Cc2ccccc2)c2ccccc12`, the melting point was found to be 96 °C.

Take `CN1CCC(Oc2ccc(Br)cc2C(N)=O)C1` (stereo unspecified): the melting point lay in the range of 160 to 162 °C.

In turn, `O=C(NCCNCC(O)COc1ccc(OCCOCC2CC2)cc1)N1CCOCC1` (stereo unspecified) gave a melting point of 80 to 81 °C.

For `CC(=O)c1cc2cccc(OC3SCC(O)C(O)C3O)c2o1` (stereo unspecified), the melting point was 116 to 120 °C.

As for `CC(C)C(NC(=O)Cn1c(-c2ccc(F)cc2)ncc(N)c1=O)C(=O)C(F)(F)F` (stereo unspecified), the melting point fell in the range of 200 to 203 °C.

Consider `O=C(c1cccs1)c1cnn2c(-c3cccs3)ccnc12`, for which the melting point was in the range of 193 to 195 °C.

`CS(=O)(=O)c1ccc(-c2cnn(-c3ccc(F)c(Cl)c3)c(=O)c2-c2ccc(Cl)cc2)cc1`: the melting point was found to be 205 °C.

In turn, `CCOC(=O)c1[nH]c(C)c(C)c1OCCCl` showed a melting point of 81 to 83 °C.

`CCC(=O)O[C@@H]1OCC[C@@H]1NC(=O)[C@@H](NS(=O)(=O)c1cccc2ccccc12)[C@@H](C)CC`: the melting point is 157 to 159 °C.

Compound `CN(C)c1cc(-c2nnn(Cc3ccc(C(=O)O)cc3)n2)ccc1OC(=O)C(C)(C)C` registered a melting point of 177 to 178 °C.

Compound `BrCc1c(Br)c(Br)c(CBr)c(Br)c1Br` showed a melting point of 268 to 271 °C.

`O=C(O)CCCCCc1c([N+](=O)[O-])cc(O)c(O)c1[N+](=O)[O-]`: the melting point is 120 to 127 °C.

`COc1ccc(C(=O)Nc2cnc3c(c2)CN(Cc2ccccc2)CC3)cc1Br` returned a melting point of 214 to 215 °C.

`COc1cc(OC)c(NC(=O)NC2(c3ccccc3)CCCC2)c(OC)c1` came in with a melting point of 193 to 195 °C.

For `CC(C)(C)OC(=O)CN1C(=O)C(NC(=O)OCc2ccccc2)C1CCC(=O)O` (stereo unspecified), the melting point fell in the range of 118 to 120 °C.

Compound `CC(=O)OC1CSC(Oc2cc(-c3ccc(F)nc3)cnc2Cl)C(OC(C)=O)C1OC(C)=O` (stereo unspecified) registered a melting point of 70 to 90 °C.

As for `CCCNCC(O)c1ccc(S(C)(=O)=O)cc1` (stereo unspecified), the melting point was in the range of 120 to 123 °C.

`CC1=CC(O)C(OC(=O)c2ccc(N)cc2)C(C)(C)CC1=O` (stereo unspecified) returned a melting point of 170 to 171 °C.

As to `NC(=O)c1ccc(N2CCN(Cc3cn4cc(Cl)ccc4n3)CC2)c(Cl)c1`, the melting point was in the range of 254 to 256 °C.

Turning to `COc1cc(OC)cc(N2CCN(C(=O)N(c3nc4ccccc4nc3OC)C(C)C)CC2)c1`, the melting point was in the range of 110 to 112 °C.

Consider `O=S(=O)(Nc1cc(Cl)c(Oc2nc3ccc(Cl)cc3s2)c(Cl)c1)c1ccc(Cl)cc1Cl`, for which the melting point lay within 73 to 75 °C.

As to `CC(=O)Nc1nc2c(Oc3cc(-c4ccc(C(F)(F)F)cc4NC(=O)C4CCCCN4CC4CC4)ncn3)cccc2s1` (stereo unspecified), the melting point lay within 212 to 214 °C.

For `CCOC(=O)Nc1nc(C)c(-c2nc3ccccc3c(=O)n2-c2cccc(C)c2)s1`, the melting point lay within 210 to 211 °C.

As to `CCOC(=O)c1cn(-c2ccccc2)c2c([N+](=O)[O-])c(Cl)c(F)cc2c1=O`, the melting point was in the range of 186 to 188 °C.

The compound `Cc1cc(-c2cc(C(F)(F)F)nn2-c2ccc(S(C)(=O)=O)c(F)c2)ccc1-c1cocn1` had a melting point of 141 to 143 °C.

As for `O=C1c2cscc2Nc2ccccc2N1Cc1ccc(Cl)c(C(F)(F)F)c1`, the melting point lay within 181 to 183 °C.

Turning to `COc1ccc(-c2cc(=O)c3ccc(OCC4CO4)cc3o2)cc1OC` (stereo unspecified), the melting point lay in the range of 148 to 149 °C.

`COC(=O)c1ccc(C(O)c2cccnc2)cc1` (stereo unspecified) yielded a melting point of 151 °C.

For the compound `CC1N=C(N2CCN(CCO)CC2)NN=C1c1ccccc1` (stereo unspecified), the melting point lay in the range of 103 to 105 °C.

Compound `CC(=O)NC1=C(C#N)C(c2cccc([N+](=O)[O-])c2)=C2C=Cc3ccccc3C2O1` (stereo unspecified) came in with a melting point of 234 to 236 °C.

`COc1cc(C=O)c([N+](=O)[O-])c(OC)c1` showed a melting point of 104 to 105 °C.

Compound `CN1C(=O)CCC2(C)c3ccc(Sc4ccccc4F)cc3CCC12` (single isomer, unassigned; (+)) came in with a melting point of 100 to 103 °C.

For `CN1CCC=C(c2cc3ccccc3c(=O)[nH]2)C1`, the melting point fell in the range of 214 to 216 °C.

As to `Cc1ccc(-c2ccc3c(c2)C=C(C(=O)Nc2ccc(CS(=O)(=O)C4CCCCC4)cc2)CCO3)cc1`, the melting point was 250 to 251 °C.

In turn, `O=[N+]([O-])c1cc(CO)ccc1Br` displayed a melting point of 61 to 62 °C.

For `CC(C)c1cc(C(=O)Nc2ccc(C(=O)O)cc2)sc1C(C)C`, the melting point was 219 to 221 °C.

In the case of `CC(C)C(OC(=O)C(C)(C)C)n1nnc(-c2ccccc2-c2ccc(Oc3c(C4CC4)nc4ccccc4c3C(=O)O)cc2)n1` (stereo unspecified), the melting point was in the range of 165 to 168 °C.

Compound `CCOc1ccccc1OCCNC(=O)CCC(=O)c1ccc(F)cc1` gave a melting point of 98 to 100 °C.

In turn, `CC(=O)c1cc(S(N)(=O)=O)ccc1F` returned a melting point of 172 to 173 °C.

For the compound `Cc1cc2oc(=O)c3c(c2cc1Cl)CCNC3`, the melting point is 184 to 185 °C.

In turn, `COC(=O)C1CNCCN1C(=O)/C=C/c1ccc(Sc2ccc3c(c2)OCCO3)c(C(F)(F)F)c1` (stereo unspecified) came in with a melting point of 70 to 72 °C.

`C[C@H](N)C(=O)N[C@@H](C)C(=O)NC(C)(Cc1ccccc1)c1ccccc1` (stereo partly specified) gave a melting point of 161 to 162 °C.

`N#Cc1ccc(CNC(c2ccccc2)c2ccccc2)cc1` came in with a melting point of 75 °C.

On to `CC1(C)CCc2ccc(C(=O)O)cc2CC1`, for which the melting point lay within 166 to 171 °C.

Take `CC#CCOc1ccc(S(=O)(=O)C2(C(=O)NO)CCN(C(C)C)CC2)cc1`: the melting point turned out to be 105 °C.

`CCOC(=O)C1=C(C)NC(C#N)=C(C(=O)OCC)C1c1ccccc1[N+](=O)[O-]` (stereo unspecified) showed a melting point of 126 to 128 °C.

Values taken from a melting point compilation (Tetko et al.; mined from patent text by program, amines drawn as free bases though some values may be those of a salt).
